# Experimental data: patent US12559474B2, “Triazine derivatives having virus replication inhibitory activity and pharmaceutical composition comprising the same” (priority 2021, dated 2026)
# Like-named read-outs stand apart in the source and are kept apart here.
# What was measured:
# [1] = molecular target: SARS-CoV-2 3CL protease (Severe acute respiratory syndrome coronavirus 2, UniProt P0DTD1); assay: biochemical; conditions: 50% SARS-CoV-2 3CL protease inhibitory concentration, read-out: IC50
# [2] = system: SARS-CoV-2; assay: microbe, parasite or virus in culture; type: cell-based; conditions: Severe acute respiratory syndrome coronavirus 2, VeroE6/TMPRSS2, 72 h, 50% SARS-CoV-2 infected cell death inhibitory concentration, VeroE6/TMPRSS2 cells, 3 days culture
compound,measurement,setting,value
Cn1cnc(Cn2cc3cc(Nc4nc(=O)n(Cc5ncn(C)n5)c(=O)n4Cc4cc(Cl)c(F)cc4F)c(Cl)cc3n2)n1 [II-0003],IC50,[1]; RapidFire MS,6 nM
same,EC50,[2]; CellTiter-Glo 2.0,17800 nM
Cn1cnc(Cn2c(=O)nc(Nc3cc4cn(Cc5ccccn5)nc4cc3Cl)n(Cc3cc(Cl)c(F)cc3F)c2=O)n1 [II-0005],IC50,[1]; given as class symbols,< 100 nM
same,EC50,[2]; class symbols,1000 to 10000 nM
Cn1cnc(Cn2c(=O)nc(Nc3cc4cn(Cc5ccccn5)nc4cc3Cl)n(Cc3cc(F)c(F)c(Cl)c3)c2=O)n1 [II-0006],IC50,[1]; given as class symbols,< 100 nM
same,EC50,[2]; class symbols,1000 to 10000 nM
Cc1cncc(-n2c(=O)nc(Nc3cc4cn(CCN5CCOCC5)nc4cc3Cl)n(Cc3cc(F)c(F)cc3F)c2=O)c1 [II-0007],IC50,[1]; given as class symbols,< 100 nM
same,EC50,[2]; class symbols,< 1000 nM
Cn1cc2cc(Nc3nc(=O)n(Cc4cc5ccsc5[nH]c4=O)c(=O)n3Cc3ccc(F)c(C#N)c3)c(Cl)cc2n1 [II-0008],IC50,[1]; given as class symbols,< 100 nM
same,EC50,[2]; class symbols,1000 to 10000 nM
CCn1cc2cc(Nc3nc(=O)n(-c4cncc(C)c4)c(=O)n3Cc3ccc(F)c(C#N)c3)ccc2n1 [II-0010],IC50,[1]; RapidFire MS,19 nM
same,EC50,[2]; CellTiter-Glo 2.0,940 nM
CC(=O)Nc1nc2cc(F)c(Nc3nc(=O)n(-c4cncc(C)c4)c(=O)n3Cc3ccc(F)c(C#N)c3)cc2s1 [II-0011],IC50,[1]; given as class symbols,< 100 nM
same,EC50,[2]; class symbols,1000 to 10000 nM
COc1ccc(Nc2nc(=O)n(Cc3cc(N4CCCC4)c[nH]c3=O)c(=O)n2Cc2cc(F)c(F)c(F)c2)cc1 [II-0014],IC50,[1]; RapidFire MS,2400 nM
same,EC50,[2]; CellTiter-Glo 2.0,22100 nM
Cc1cncc(-n2c(=O)nc(Nc3cc4cn(C)nc4cc3Cl)n(Cc3cc(C#N)c(F)cc3C)c2=O)c1 [II-0015],IC50,[1]; RapidFire MS,1.5 nM
same,EC50,[2]; CellTiter-Glo 2.0,35 nM
Cn1cnc(Cn2c(=O)nc(Nc3cc4c(cc3Cl)OCC4)n(Cc3cc(F)c(F)c(F)c3F)c2=O)n1 [II-0017],IC50,[1]; given as class symbols,< 100 nM
same,EC50,[2]; class symbols,< 1000 nM
Cc1cncc(-n2c(=O)nc(Nc3cc4cn(C)nc4cc3Cl)n(Cc3cc(F)c(F)cc3Cc3cnn(C)c3)c2=O)c1 [II-0018],IC50,[1]; given as class symbols,< 100 nM
same,EC50,[2]; class symbols,1000 to 10000 nM
Cc1cncc(-n2c(=O)nc(Nc3cc4cn(C)nc4cc3Cl)n(Cc3ccc(F)c(C#N)c3C)c2=O)c1 [II-0020],IC50,[1]; given as class symbols,< 100 nM
same,EC50,[2]; class symbols,1000 to 10000 nM
O=c1[nH]cc(F)cc1Cn1c(=O)nc(Nc2cc3c(cc2Cl)OCC3)n(Cc2cc(F)c(F)cc2F)c1=O [II-0022],IC50,[1]; given as class symbols,< 100 nM
same,EC50,[2]; class symbols,< 1000 nM
Cc1cncc(-n2c(=O)nc(Nc3cc4cn(C)nc4cc3Cl)n(Cc3cc(C#N)c(F)cc3CC(C)C)c2=O)c1 [II-0023],IC50,[1]; given as class symbols,< 100 nM
same,EC50,[2]; class symbols,< 1000 nM
Cc1cncc(-n2c(=O)nc(Nc3cc4cn(C)nc4cc3Cl)n(Cc3cc(C#N)ccc3CCC(C)(C)O)c2=O)c1 [II-0024],IC50,[1]; given as class symbols,< 100 nM
same,EC50,[2]; class symbols,1000 to 10000 nM
Cc1cncc(-n2c(=O)nc(Nc3cc4cn(C)nc4cc3Cl)n(Cc3cc(F)c(F)cc3Cc3cccc(CO)c3)c2=O)c1 [II-0025],IC50,[1]; given as class symbols,< 100 nM
same,EC50,[2]; class symbols,8000 nM
Cc1cncc(-n2c(=O)nc(Nc3cc4cn(C)nc4cc3Cl)n(Cc3cc(C#N)ccc3Cc3cccc(F)c3)c2=O)c1 [II-0027],IC50,[1]; given as class symbols,< 100 nM
same,EC50,[2]; class symbols,< 1000 nM
Cc1cncc(-n2c(=O)nc(Nc3cc4cn(C)nc4cc3Cl)n(Cc3ccc(F)c(F)c3)c2=O)c1 [II-0028],IC50,[1]; given as class symbols,< 100 nM
same,EC50,[2]; class symbols,< 1000 nM
N#Cc1cc(F)cc(Cn2c(Nc3cc4c(cc3Cl)OCC4)nc(=O)n(Cc3ccc[nH]c3=O)c2=O)c1 [II-0029],IC50,[1]; given as class symbols,< 100 nM
same,EC50,[2]; class symbols,1000 to 10000 nM
O=c1[nH]c2sccc2cc1Cn1c(=O)nc(Nc2cc3cn(CCO)nc3cc2Cl)n(Cc2cc(F)c(F)c(F)c2)c1=O [II-0031],IC50,[1]; given as class symbols,< 100 nM
same,EC50,[2]; class symbols,1000 to 10000 nM
O=c1nc(Nc2cc3cn(CCO)nc3cc2Cl)n(Cc2cc(F)c(F)cc2F)c(=O)n1-c1cncc2ccccc12 [II-0032],IC50,[1]; given as class symbols,< 100 nM
same,EC50,[2]; class symbols,< 1000 nM
CCn1cc2cc(Nc3nc(=O)n(-c4cncc(Cl)c4)c(=O)n3Cc3cc(C#N)ccc3C)ccc2n1 [II-0034],IC50,[1]; RapidFire MS,7.3 nM
same,EC50,[2]; CellTiter-Glo 2.0,234 nM
Cc1cncc(-n2c(=O)nc(Nc3cc4sc(NC(C)C)nc4cc3Cl)n(Cc3ccc(F)c(C#N)c3)c2=O)c1 [II-0035],IC50,[1]; given as class symbols,< 100 nM
same,EC50,[2]; class symbols,< 1000 nM
CCn1cc2cc(Nc3nc(=O)n(-c4cncc(Cl)c4)c(=O)n3Cc3cc(C#N)ccc3Cl)ccc2n1 [II-0036],IC50,[1]; RapidFire MS,8.3 nM
same,EC50,[2]; CellTiter-Glo 2.0,355 nM
CC(C)Nc1nc2cc(Cl)c(Nc3nc(=O)n(Cc4ncn(C)n4)c(=O)n3Cc3cc(F)c(F)cc3F)cc2s1 [II-0037],IC50,[1]; given as class symbols,< 100 nM
same,EC50,[2]; class symbols,1000 to 10000 nM
Cc1cncc(-n2c(=O)nc(Nc3ccc4nn(C(C)C)cc4c3)n(Cc3ccc(F)c(C#N)c3)c2=O)c1 [II-0038],IC50,[1]; given as class symbols,< 100 nM
same,EC50,[2]; class symbols,1000 to 10000 nM
Cn1cnc(Cn2c(=O)nc(Nc3cc4cccnc4cc3Cl)n(Cc3cc(F)c(F)cc3F)c2=O)n1 [II-0039],IC50,[1]; given as class symbols,< 100 nM
same,EC50,[2]; class symbols,1000 to 10000 nM
